A value given as a limit tells only on which side of the number the result lay.

The target of this experiment is T1, POLγA:R309C (Homo sapiens, UniProt P54098, R309C).
T1 sequence (P54098 1-1239 R309C): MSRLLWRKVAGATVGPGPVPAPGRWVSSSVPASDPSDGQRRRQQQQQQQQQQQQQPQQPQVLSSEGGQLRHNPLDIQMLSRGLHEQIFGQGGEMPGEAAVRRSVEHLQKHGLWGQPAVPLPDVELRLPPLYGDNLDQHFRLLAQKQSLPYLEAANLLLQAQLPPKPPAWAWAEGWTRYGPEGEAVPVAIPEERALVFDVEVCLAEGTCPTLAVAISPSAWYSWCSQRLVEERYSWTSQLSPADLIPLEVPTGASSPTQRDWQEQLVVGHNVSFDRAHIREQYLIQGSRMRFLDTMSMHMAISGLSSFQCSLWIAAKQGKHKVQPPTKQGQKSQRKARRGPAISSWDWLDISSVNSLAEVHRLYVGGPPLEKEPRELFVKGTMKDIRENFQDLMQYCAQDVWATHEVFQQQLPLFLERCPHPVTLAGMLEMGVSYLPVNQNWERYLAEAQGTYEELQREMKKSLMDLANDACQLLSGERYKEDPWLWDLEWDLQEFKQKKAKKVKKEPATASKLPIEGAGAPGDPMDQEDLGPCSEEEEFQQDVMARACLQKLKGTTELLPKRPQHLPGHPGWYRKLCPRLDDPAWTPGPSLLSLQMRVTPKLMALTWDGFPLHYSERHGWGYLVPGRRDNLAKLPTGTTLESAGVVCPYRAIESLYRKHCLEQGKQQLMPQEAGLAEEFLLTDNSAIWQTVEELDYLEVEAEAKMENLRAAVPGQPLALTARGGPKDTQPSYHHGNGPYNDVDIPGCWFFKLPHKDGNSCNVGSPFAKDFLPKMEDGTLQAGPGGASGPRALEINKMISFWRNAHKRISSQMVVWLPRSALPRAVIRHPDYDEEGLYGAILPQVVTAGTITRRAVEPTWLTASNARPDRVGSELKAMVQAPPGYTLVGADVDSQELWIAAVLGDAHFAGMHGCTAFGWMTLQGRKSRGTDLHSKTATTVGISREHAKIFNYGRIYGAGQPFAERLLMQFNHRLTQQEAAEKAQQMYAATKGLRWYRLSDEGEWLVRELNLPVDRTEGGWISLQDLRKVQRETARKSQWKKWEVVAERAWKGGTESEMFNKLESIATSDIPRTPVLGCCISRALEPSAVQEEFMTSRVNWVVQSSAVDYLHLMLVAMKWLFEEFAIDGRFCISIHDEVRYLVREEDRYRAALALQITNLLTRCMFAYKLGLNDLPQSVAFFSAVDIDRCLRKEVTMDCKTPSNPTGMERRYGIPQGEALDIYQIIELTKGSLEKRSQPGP
T1 sequence (Q9UHN1 1-485 partner): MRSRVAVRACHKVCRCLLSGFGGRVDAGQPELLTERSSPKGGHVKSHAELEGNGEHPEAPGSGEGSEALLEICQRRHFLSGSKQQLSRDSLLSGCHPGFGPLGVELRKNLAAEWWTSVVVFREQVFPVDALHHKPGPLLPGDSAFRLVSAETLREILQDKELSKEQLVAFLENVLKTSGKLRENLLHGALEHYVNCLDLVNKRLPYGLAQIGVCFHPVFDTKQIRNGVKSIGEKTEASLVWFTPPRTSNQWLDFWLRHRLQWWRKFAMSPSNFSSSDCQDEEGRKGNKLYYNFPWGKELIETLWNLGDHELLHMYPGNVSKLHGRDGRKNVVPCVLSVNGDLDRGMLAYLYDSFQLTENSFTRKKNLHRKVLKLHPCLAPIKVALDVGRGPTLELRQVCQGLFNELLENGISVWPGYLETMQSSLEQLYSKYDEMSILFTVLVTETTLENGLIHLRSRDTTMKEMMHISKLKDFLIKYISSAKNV
Nature of the experiment: DNA polymerization assay, POLγA:R309C mutant. The experiment is classed as biochemical. Particulars: stimulation of polymerase activity, primed M13mp18 ssDNA, 37° C. 2 hours. Here is the method:
DNA Polymerization Assay to Monitor Effects on Human Wildtype POLγ and Four Disease-Causing Mutant Variants of Human POLγ.
The ability of small molecules to stimulate the polymerase activity of POLγ was analyzed in a quantitative fluorescence SYBR Green I assay with fluorescence intensity (FI) readout.
In the presence of dNTPs, wild type human POLγ and mutant derivatives thereof were incubated with single-stranded, circular M13mp18 ssDNA hybridized to a short DNA oligonucleotide that functions as a primer for initiation of DNA synthesis. POLγ and mutant derivatives thereof will extend the primer and use the M13mp18 molecule as a template to synthesize long stretches of double-stranded DNA. SYBR Green I, which is a double-stranded DNA-binding dye, was used to quantify formation of double-stranded DNA in the reaction. When bound to double-stranded DNA, SYBR Green I fluorescence increases by up to 100-fold.
The assay was performed in the 384-well plate format. Upon addition of compounds, changes in double-stranded DNA synthesis activity can be monitored by following effects on fluorescent intensity.
The reactions also contained the accessory POLγB subunit, and the human mitochondrial single-stranded DNA binding protein (mtSSB).
The DNA template mixture used in the assay contained 0.5 nM primed M13 mp18 ssDNA, 400 nM mtSSB, 0.1 mM Tris-HCl (pH 8.0), 0.1 mM dNTP, 10 mM MgCl2, 0.1 mg/mL BSA, 1 mM TCEP solution, and 0.02% Triton X-100. The DNA template mixture for the wild type protein contained either 100 μM dNTP, 1 μM dNTP, or 0.1 μM dNTP, designated in Table 2 as 100 μM, 1 μM, and 0.1 μM, respectfully.
Microplates with compounds (0.1 μL in each well) to be tested in the assay were prepared from 10 mM compound stocks in 100% DMSO, and equal amounts of DMSO without any compound were added to positive and negative control wells.
The protein mixture was dispensed (5 μL into each well) into compound plates and incubated at 37° C. for 15 minutes. After incubation, 5 μL of the DNA template mixture was dispensed into each well. The plates were then incubated at 37° C. for 2 hours.
During incubation, a combined stop buffer and detection reagent solution was prepared. The buffer contained 25 mM EDTA (pH 8.0), 0.02% Triton X-100, and SYBR Green I [Invitrogen] diluted 10,000× (for fluorescent readout). EDTA will stop the enzymatic reaction by chelating magnesium ions.
On to `Cc1ccc(C)c(S(=O)(=O)Nc2cccc(C(=O)N3CCCC[C@H]3C)c2)c1` [Example 5, (R)-2,5-dimethyl-N-(3-(2-methylpiperidine-1-carbonyl)phenyl)benzenesulfonamide], for which the AC50 was determined as 11 µM.
Compound `Cc1cc(S(=O)(=O)Nc2cccc(-c3nccn3C)c2)c(C)cc1Cl` [Example 19, 4-chloro-2,5-dimethyl-N-(3-(1-methyl-1H-imidazol-2-yl)phenyl)benzenesulfonamide] registered an AC50 of 3 µM.
The compound `Cc1ccc(C)c(S(=O)(=O)Nc2cccc(C(=O)N3CCCCC3C#N)c2)c1` (centres unmarked) [Example 2, N-(3-(2-cyanopiperidine-1-carbonyl)phenyl)-2,5-dimethylbenzenesulfonamide] came in with an AC50 of 8 µM.
`Cc1cc(S(=O)(=O)Nc2cccc(-c3nccs3)c2)c(C)cc1Cl` [Example 16, 4-chloro-2,5-dimethyl-N-(3-(thiazol-2-yl)phenyl)benzenesulfonamide] returned an AC50 of 2 µM.
As for `Cc1cc(S(=O)(=O)Nc2cccc(C(=O)NCc3ccccc3)c2)c(C)cc1Cl` [Example 11, N-benzyl-3-((4-chloro-2,5-dimethylphenyl)sulfonamido)benzamide], the figure is 6 µM; as for `Cc1ccc(C)c(S(=O)(=O)Nc2cccc(C(=O)N3CCOCC3C#N)c2)c1` (centres unmarked) [Example 7, N-(3-(3-cyanomorpholine-4-carbonyl)phenyl)-2,5-dimethylbenzenesulfonamide], 10 µM; as for `Cc1cnc(-c2ccc(C)c(NS(=O)(=O)c3cc(C)c(Cl)cc3C)c2)s1` [Example 98, 4-chloro-2,5-dimethyl-N-(2-methyl-5-(5-methylthiazol-2-yl)phenyl)benzenesulfonamide], > 100 µM.
In the case of `Cc1ccc(C)c(S(=O)(=O)Nc2cccc(C(=O)N[C@@H](C)C3CC3)c2)c1` [Example 8, (S)-N-(1-cyclopropylethyl)-3-((2,5-dimethylphenyl)sulfonamido)benzamide], the activity was half-maximal at 4 µM (AC50).
Compound `Cc1cc(S(=O)(=O)Nc2ccc3c(c2)CC(=O)N3)c(C)cc1Cl` [Example 185, 4-chloro-2,5-dimethyl-N-(2-oxoindolin-5-yl)benzenesulfonamide] showed an AC50 of 8 µM.
For `Cc1cc(S(=O)(=O)Nc2cccc(C(=O)N3CCCC[C@H]3C)c2)c(C)cc1Cl` [Example 9, (R)-4-chloro-2,5-dimethyl-N-(3-(2-methylpiperidine-1-carbonyl)phenyl)benzenesulfonamide] the value was 2 µM; for `Cc1cc(S(=O)(=O)Nc2cccc(C(=O)N(C)C)c2)c(C)cc1Cl` [Example 12, 3-((4-chloro-2,5-dimethylphenyl)sulfonamido)-N,N-dimethylbenzamide], 3 µM; for `Cc1ccc(C)c(S(=O)(=O)Nc2cccc(C(=O)NCC3CC3)c2)c1` [Example 4, N-(cyclopropylmethyl)-3-((2,5-dimethylphenyl)sulfonamido)benzamide], 25 µM.
As to “(R)-2,5-dimethyl-N-(3-(3-methylmorpholine-4-carbonyl)phenyl)benzenesulfonamide [Example 1]”, the AC50 is 12 µM.
With `Cc1cnc(-c2ccc(Cl)c(NS(=O)(=O)c3cc(C)c(Cl)cc3C)c2)s1` [Example 102, 4-chloro-N-(2-chloro-5-(5-methylthiazol-2-yl)phenyl)-2,5-dimethylbenzenesulfonamide], the AC50 is > 100 µM.
`Cc1cc(S(=O)(=O)Nc2cccc(C(=O)N(C)C(C)CO)c2)c(C)cc1Cl` (single isomer, unassigned) [Example 14, 3-((4-chloro-2,5-dimethylphenyl)sulfonamido)-N-(1-hydroxypropan-2-yl)-N-methylbenzamide] yielded a concentration at half-maximal activity (AC50) of 13 µM.
As for `Cc1cc(S(=O)(=O)Nc2cc(F)cc(C(=O)N3CCC[C@H]3C)c2)c(C)cc1Cl` [Example 13, (R)-4-chloro-N-(3-fluoro-5-(2-methylpyrrolidine-1-carbonyl)phenyl)-2,5-dimethylbenzenesulfonamide], the figure is 3 µM.
For `Cc1ccc(C)c(S(=O)(=O)Nc2cccc(C(=O)N3CCCC[C@@H]3C)c2)c1` [Example 6, (S)-2,5-dimethyl-N-(3-(2-methylpiperidine-1-carbonyl)phenyl)benzenesulfonamide] the value was 13 µM; for `Cc1cc(S(=O)(=O)Nc2cccc(-c3ncc(C#N)s3)c2)c(C)cc1Cl` [Example 96, 4-chloro-N-(3-(5-cyanothiazol-2-yl)phenyl)-2,5-dimethylbenzenesulfonamide], > 100 µM; for `Cc1cc(S(=O)(=O)Nc2cccc(-c3ccn(C)n3)c2)c(C)cc1Cl` [Example 18, 4-chloro-2,5-dimethyl-N-(3-(1-methyl-1H-pyrazol-3-yl)phenyl)benzenesulfonamide], 5 µM.
`Cc1cnc(-c2cc(NS(=O)(=O)c3cc(C)c(Cl)cc3C)ccc2C)s1` [Example 103, 4-chloro-2,5-dimethyl-N-(4-methyl-3-(5-methylthiazol-2-yl)phenyl)benzenesulfonamide] registered an AC50 of 58 µM.
As for `Cc1cc(S(=O)(=O)Nc2cccc(-c3ncco3)c2)c(C)cc1Cl` [Example 17, 4-chloro-2,5-dimethyl-N-(3-(oxazol-2-yl)phenyl)benzenesulfonamide], the activity was half-maximal at 2 µM (AC50).
As for `Cc1cc(S(=O)(=O)Nc2cccc(C(=O)N3CCC[C@H]3C)c2)c(C)cc1Cl` [Example 10, (R)-4-chloro-2,5-dimethyl-N-(3-(2-methylpyrrolidine-1-carbonyl)phenyl)benzenesulfonamide], the figure is 1 µM; as for `Cc1ccc(C)c(S(=O)(=O)Nc2cccc(C(=O)N3CCCCC3)c2)c1` [Example 3, 2,5-dimethyl-N-(3-(piperidine-1-carbonyl)phenyl)benzene sulfonamide], 28 µM.

As usually defined, the AC50 is the concentration giving half of the maximal activity seen. Read a low AC50 as activity at low concentration.

For the origin of these results see patent US20260138961A1, “MODULATORS OF MITOCHONDRIAL DNA REPLICATION” (Pretzel Therapeutics, Inc., priority 2022, published 2026).
